# Data from paper PMC8728736, “A Reactivity-Based ^18F-Labeled Probe for PET Imaging of Oxidative Stress in Chemotherapy-Induced Cardiotoxicity” (Molecular Pharmaceutics, 2021).
# Assays:
# [1] = Lipophilicity, partition between 1-octanol and PBS; assay type: physicochemical; conditions: 1-octanol/PBS, pH 7.4, 1-octanol/PBS pH 7.4, shake-flask, n = 6; read-out: LogD
# Experimental: The lipophilicity of ^18F-FPBT and ^18F-FPBT-Ox was determined by a conventional partition method between 1-octanol and phosphate buffered saline (PBS), pH 7.4. 1-Octanol was presaturated with PBS before use. The radiotracer (∼2 KBq) was added to a mixture of PBS (200 μL) and 1-octanol (200 μL) in a 1.5 mL Eppendorf vial (n = 6). The mixture was vigorously agitated at rt for 5 min and then centrifuged at 3000 g for 10 min. A 100 μL aliquot from each layer was drawn for measurement in a gamma counter. The LogDoct/PBS was calculated as follows: log [(cpm in the 1-octanol layer – cpm 1-octanol blank)/(cpm in the PBS layer – cpm PBS blank)].
# [2] = Reactivity of 18F-FPBT to reactive oxygen species: superoxide; conditions: potassium superoxide, 5 min, ascorbate 1 mg/mL, n = 3
# Experimental: (§1) ^18F-FPBT (0.5–2.0 MBq) was reacted with potassium superoxide (source of superoxide, 1 mg), hydrogen peroxide (100 μM), Fenton-reaction-generated hydroxyl radicals (100 μM), iron(II) sulfate heptahydrate (100 μM), tert-butyl hydroperoxide (100 μM), tert-butoxy radical (100 μM), and 3-morpholinosydnomine (source of peroxynitrite (100 μM)) for 5 min or diethylamine NONOate (source of nitric oxide, 100 μM) for 30 min at room temperature, after which it was subjected to radio-HPLC analysis and % oxidation was calculated.
# [3] = Reactivity of 18F-FPBT to reactive oxygen species: hydroxyl radical; conditions: Fenton-reaction-generated hydroxyl radicals 100 μM, 5 min
# Experimental: as §1
# [4] = Reactivity of 18F-FPBT to reactive oxygen species: tert-butoxy radical; conditions: 100 μM, 5 min
# Experimental: as §1
# [5] = Reactivity of 18F-FPBT to reactive oxygen species: hydrogen peroxide; conditions: 100 μM, 5 min
# Experimental: as §1
# [6] = Reactivity of 18F-FPBT to reactive oxygen species: peroxynitrite; conditions: 3-morpholinosydnomine 100 μM, 5 min
# Experimental: as §1
# [7] = PET/CT imaging of healthy mice; assay type: in vivo, C57BL/6 mice; conditions: iv
# Experimental: C57BL/6 mice (male, 25 ± 2 g, n = 3) were placed on the PET scanner bed and injected with ^18F-FPBT (1.7 ± 0.4 MBq) through the tail vein at the start time of PET acquisition. A dynamic PET scan was performed for 60 min, followed by a CT scan and ex vivo biodistribution. The PET data was reconstructed into 5 frames of 60 s, 3 frames of 300 s, and 4 frames of 600 s. Regions of interest (ROIs) were drawn and quantified using VivoQuant software (v3.0, inviCRO, LLC, Boston, USA). Organ uptake was calculated as standard uptake values (SUV), and data are reported as mean ± SD.
# [8] = Post-mortem biodistribution in healthy rats; assay type: in vivo, Wistar rats; conditions: for Ex vivo biodistribution, Blood / Ex vivo biodistribution, Bone / Ex vivo biodistribution, Brain / Ex vivo biodistribution, Heart / Ex vivo biodistribution, Kidney / Ex vivo biodistribution, Large Intestine / Ex vivo biodistribution, Liver / Ex vivo biodistribution, Lung / Ex vivo biodistribution, Muscle / Ex vivo biodistribution, Spleen / Ex vivo biodistribution, Urine / Ex vivo biodistribution, Small Intestine: healthy rats, mean ± SD, n = 3
# Experimental: Wistar rats (male, 319 ± 20 g) were injected intravenously via the tail vein with either ^18F-FPBT (1.0 ± 0.4 MBq) or ^18F-FPBT-Ox (1.1 ± 0.5 MBq). The animals were sacrificed by cervical dislocation at 1, 5, or 30 min postinjection (n = 3/group). Organs and tissues of interest were harvested and weighed, and the radioactivity was measured in a gamma counter. Organ uptake was calculated as the percentage injected dose per gram of tissue mass (% ID/g). Data are reported as mean ± SD.
compound,measurement,setting,value
"[18F]CCCN1c2ccccc2SC1c1ccccc1 (centres unmarked) [^18F-FPBT, 3-(3-[^18F]Fluoropropyl)-2-phenyl-2,3-dihydrobenzo[d]thiazole]",LogD,[1],1 ± 0.08
same,% oxidation by superoxide in the presence of ascorbate,[2],31 ± 5%
same,Reactivity to hydroxyl radical,[3],inert
same,Oxidation by tert-butoxy radical,[4],no oxidation was observed
same,Reactivity to hydrogen peroxide,[5],some reactivity
same,Reactivity to peroxynitrite,[6],some reactivity
same,"Background retention in heart, lungs, spleen and brain",[7],low nonspecific background retention
same,Time to excretion by renal and hepatobiliary routes,[7],less than 1 h
same,Blood clearance,[7]; dynamic PET 60 min,fast blood clearance
same,"Route of clearance / excretion, in words","[8]; healthy Wistar rats, iv",excreted by both renal and hepatobiliary routes
same,"Uptake by major organs (brain, heart, lung, spleen), in words","[8]; healthy Wistar rats, iv",rapid uptake
same,"Ex vivo biodistribution, Blood","[8]; iv, 1 min",0.12 ± 0.05 % ID/g
same,"Ex vivo biodistribution, Bone","[8]; iv, 1 min",0.14 ± 0.01 % ID/g
same,"Ex vivo biodistribution, Brain","[8]; iv, 1 min",0.57 ± 0.04 % ID/g
same,"Ex vivo biodistribution, Heart","[8]; iv, 1 min",1.33 ± 0.15 % ID/g
same,"Ex vivo biodistribution, Kidney","[8]; iv, 1 min",1.58 ± 0.11 % ID/g
same,"Ex vivo biodistribution, Large Intestine","[8]; iv, 1 min",0.21 ± 0.03 % ID/g
same,"Ex vivo biodistribution, Liver","[8]; iv, 1 min",1.52 ± 0.25 % ID/g
same,"Ex vivo biodistribution, Lung","[8]; iv, 1 min",0.66 ± 0.15 % ID/g
same,"Ex vivo biodistribution, Muscle","[8]; iv, 1 min",0.08 ± 0.03 % ID/g
same,"Ex vivo biodistribution, Spleen","[8]; iv, 1 min",0.67 ± 0.09 % ID/g
same,"Ex vivo biodistribution, Urine","[8]; iv, 1 min",0.02 ± 0.01 % ID/g
same,"Ex vivo biodistribution, Blood","[8]; iv, 5 min",0.06 ± 0.00 % ID/g
same,"Ex vivo biodistribution, Bone","[8]; iv, 5 min",0.18 ± 0.18 % ID/g
same,"Ex vivo biodistribution, Brain","[8]; iv, 5 min",0.33 ± 0.04 % ID/g
same,"Ex vivo biodistribution, Heart","[8]; iv, 5 min",0.37 ± 0.08 % ID/g
same,"Ex vivo biodistribution, Kidney","[8]; iv, 5 min",0.60 ± 0.27 % ID/g
same,"Ex vivo biodistribution, Large Intestine","[8]; iv, 5 min",0.13 ± 0.02 % ID/g
same,"Ex vivo biodistribution, Liver","[8]; iv, 5 min",1.75 ± 0.19 % ID/g
same,"Ex vivo biodistribution, Lung","[8]; iv, 5 min",0.34 ± 0.03 % ID/g
same,"Ex vivo biodistribution, Muscle","[8]; iv, 5 min",0.05 ± 0.03 % ID/g
same,"Ex vivo biodistribution, Small Intestine","[8]; iv, 5 min",0.53 ± 0.31 % ID/g
same,"Ex vivo biodistribution, Spleen","[8]; iv, 5 min",0.18 ± 0.01 % ID/g
same,"Ex vivo biodistribution, Urine","[8]; iv, 5 min",1.22 ± 0.89 % ID/g
same,"Ex vivo biodistribution, Blood","[8]; iv, 30 min",0.03 ± 0.00 % ID/g
same,"Ex vivo biodistribution, Bone","[8]; iv, 30 min",0.13 ± 0.02 % ID/g
same,"Ex vivo biodistribution, Brain","[8]; iv, 30 min",0.06 ± 0.01 % ID/g
same,"Ex vivo biodistribution, Heart","[8]; iv, 30 min",0.20 ± 0.04 % ID/g
same,"Ex vivo biodistribution, Kidney","[8]; iv, 30 min",0.17 ± 0.00 % ID/g
same,"Ex vivo biodistribution, Large Intestine","[8]; iv, 30 min",0.10 ± 0.03 % ID/g
same,"Ex vivo biodistribution, Liver","[8]; iv, 30 min",0.47 ± 0.13 % ID/g
same,"Ex vivo biodistribution, Lung","[8]; iv, 30 min",0.18 ± 0.01 % ID/g
same,"Ex vivo biodistribution, Muscle","[8]; iv, 30 min",0.08 ± 0.02 % ID/g
same,"Ex vivo biodistribution, Small Intestine","[8]; iv, 30 min",5.01 ± 0.90 % ID/g
same,"Ex vivo biodistribution, Spleen","[8]; iv, 30 min",0.05 ± 0.01 % ID/g
same,"Ex vivo biodistribution, Urine","[8]; iv, 30 min",3.79 ± 2.12 % ID/g
same,Defluorination in vivo (radioactivity accumulation in the bone),[8]; rats and mice,inert toward defluorination
